Results reported in patent publication US11976058B2, “Aromatic derivatives, preparation methods, and medical uses thereof” (Bioardis LLC, priority 2019, dated 2024).

Target: T1, human FGFR4 (Homo sapiens, UniProt P22455)
T1 construct: human FGFR4 cytoplasmic domain (460-802); GST (N); purchased Carna Biosciences 08-136
Experiment: FGFR4 enzymatic assay (HTRF KinEASE-TK)
Format: biochemical
Settings: wild-type human FGFR4 cytoplasmic domain (460-802), GST-tag; 60 min preincubation at 25° C.; ATP 200 μM; read-out: Potency (IC50), FGFR4 enzymatic assay
Protocol: The ability of compounds to inhibit human FGFR4 tyrosine kinase activities was determined using a commercially available HTRF® KinEASE™-TK kit (CISBIO, Cat #62TK0PEC) according to the manufacturer's protocol. Wild-type human FGFR4 cytoplasmic domain (460-802) with N-terminal GST-tag was purchased from Carna Biosciences (Carna, Cat #08-136) and used in the kinase enzymatic assay. This assay, run in a 384-well plate format, is a generic method for measuring tyrosine kinase activities using one substrate and a universal detection system. It involves two steps: (1) Enzymatic step: the biotin labeled TK Substrate is incubated with the kinase and then ATP is added to start the enzymatic reaction; during this step, FGFR4 will phosphorylate the TK Substrate-biotin. (2) Detection step: The TK-Antibody labeled with Eu^3+-Cryptate can recognize the phosphorylated TK Substrate-biotin. When the streptavidin-XL665 conjugate binds the biotin, a FRET signal will be detected. Briefly, human FGFR4 (0.25 μg/ml) in the enzymatic buffer solutions (250 mM HEPES, pH7.0, 0.1% NaN3, 0.05% BSA, 0.5 mM Orthovanadate) were mixed with various concentrations of the test compound (dissolved in 100% DMSO). These solutions were incubated for 60 min at 25° C., and subsequently a mixture of substrate peptide and ATP was added with the final peptide and ATP concentrations at 0.3 μM and 200 μM respectively. The final reaction mixture of enzyme-substrate-ATP-compound was incubated for 40 min at 37° C. Meanwhile the detection mixture containing the TK-antibody and Streptavidin-XL665 diluted in the detection buffer (50 mM HEPES, pH7.0, with additives) was prepared, and added to the reaction mixture at final concentrations of 25 nM and 18.5 nM respectively. After incubation for 60 min at 25° C., the FRET signal of the final solution was measured at 665 nm and 612 nm emissions on a TECAN Spark 10M instrument (TECAN). The percent (%) inhibition at each concentration of a compound was calculated relative to the FRET signal in the Max and Min control wells contained within each assay plate. The Max control wells contained enzyme and substrate as 0% inhibition, and the Min control wells only contained substrate without enzyme as 100% inhibition. The concentrations and percent inhibition values for a test compound are plotted and the concentration of the compound required to achieve 50% inhibition (IC50) was determined with a four-parameter logistic dose response equation. Dose-response curves were generated using Prism (GraphPad Software, La Jolla, CA, US) to calculate IC50 values for each compound tested.

T1 sequence (P22455 460-802): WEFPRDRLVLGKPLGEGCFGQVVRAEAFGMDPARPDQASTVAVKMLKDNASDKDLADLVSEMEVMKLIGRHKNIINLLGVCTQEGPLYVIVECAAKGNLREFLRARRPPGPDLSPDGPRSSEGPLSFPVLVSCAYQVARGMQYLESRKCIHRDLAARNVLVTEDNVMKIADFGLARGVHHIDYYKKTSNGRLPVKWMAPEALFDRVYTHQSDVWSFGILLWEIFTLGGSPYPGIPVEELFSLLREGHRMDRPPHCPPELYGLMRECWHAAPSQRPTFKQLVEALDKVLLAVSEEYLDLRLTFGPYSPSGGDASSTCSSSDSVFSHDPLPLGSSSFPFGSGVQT

SMILES	IC50 [µM]
C=CC(=O)N[C@H]1COC[C@H]1c1n[nH]c2c1CC[C@H](c1c(Cl)c(OC)cc(OC)c1Cl)C2 [Compound S10-P4, N-((3R,4R)-4-((S)-6-(2,6-dichloro-3,5-dimethoxyphenyl)-4,5,6,7-tetrahydro-1H-indazol-3-yl)tetrahydrofuran-3-yl)acrylamide]	> 0.1
COc1cc(OC)c(F)c([C@H]2CCc3c(-c4c(NC(=O)/C=C/C(=O)OC(C)C)cnn4C)n[nH]c3C2)c1F [Compound S23, isopropyl (S,E)-4-((5-(6-(2,6-difluoro-3,5-dimethoxyphenyl)-4,5,6,7-tetrahydro-1H-indazol-3-yl)-1-methyl-1H-pyrazol-4-yl)amino)-4-oxobut-2-enoate]	> 0.1
C=C(C)C(=O)Nc1cnn(C)c1-c1n[nH]c2c1CCC(c1c(Cl)c(OC)cc(OC)c1Cl)C2 (single isomer, unassigned) [Compound S2-P1, N-(5-(6-(2,6-dichloro-3,5-Dimethoxyphenyl)-4,5,6,7-tetrahydro-1H-indazol-3-yl)-1-methyl-1H-pyrazol-4-yl) Methacrylamide]	> 0.1
C=C(C)C(=O)Nc1cnn(C)c1-c1n[nH]c2c1CCC(c1c(Cl)c(OC)cc(OC)c1Cl)C2 (single isomer, unassigned) [Compound S2-P2, N-(5-(6-(2,6-dichloro-3,5-Dimethoxyphenyl)-4,5,6,7-tetrahydro-1H-indazol-3-yl)-1-methyl-1H-pyrazol-4-yl) Methacrylamide]	> 0.1
C=CC(=O)NC1CCOCC1c1n[nH]c2c1CC[C@H](c1c(Cl)c(OC)cc(OC)c1Cl)C2 (single isomer, unassigned) [Compound S7-P2]	> 0.1
C=CC(=O)Nc1cnn(CC)c1-c1n[nH]c2c1CC[C@@H](c1cc(OC)cc(OC)c1F)C2 [Compound S14-P3, (R)—N-(1-ethyl-5-(6-(2-fluoro-3,5-dimethoxyphenyl)-4,5,6,7-tetrahydro-1H-indazol-3-yl)-1H-pyrazol-4-yl) acrylamide]	> 0.1
C=CC(=O)N[C@@H]1COC[C@@H]1c1n[nH]c2c1CC[C@@H](c1c(Cl)c(OC)cc(OC)c1Cl)C2 [Compound S10-P2, N-((3S,4S)-4-((R)-6-(2,6-dichloro-3,5-dimethoxyphenyl)-4,5,6,7-tetrahydro-1H-indazol-3-yl)tetrahydrofuran-3-yl)acrylamide]	> 0.1
COc1cc(OC)c(F)c([C@H]2CCc3c(-c4c(NC(=O)C5CO5)cnn4C)n[nH]c3C2)c1F (stereo partly drawn) [Compound S24, N-(5-((S)-6-(2,6-difluoro-3,5-dimethoxyphenyl)-4,5,6,7-tetrahydro-1H-indazol-3-yl)-1-methyl-1H-pyrazol-4-yl)oxirane-2-carboxamide]	> 0.1
C=CC(=O)N[C@H]1COC[C@H]1c1n[nH]c2c1CC[C@H](c1c(F)c(OC)cc(OC)c1F)C2 [Compound S13-P1, N-((3R,4R)-4-((S)-6-(2,6-difluoro-3,5-dimethoxyphenyl)-4,5,6,7-tetrahydro-1H-indazol-3-yl)tetrahydrofuran-3-yl)acrylamide]	> 0.1
C=C(F)C(=O)Nc1cnn(C)c1-c1n[nH]c2c1CCC(c1c(F)c(OC)cc(OC)c1F)C2 (single isomer, unassigned) [Compound S21-P2, N-(5-(6-(2,6-difluoro-3,5-dimethoxyphenyl)-4,5,6,7-tetrahydro-1H-indazol-3-yl)-1-methyl-1H-pyrazol-4-yl)-2-fluoroacrylamide]	> 0.1

Second part, the compound after the results:

IC50 [µM]	SMILES
> 0.1	CCC(=O)Nc1cnn(C)c1-c1n[nH]c2c1CCC(c1c(F)c(OC)cc(OC)c1F)C2 (single isomer, unassigned) [Compound S20-P1, N-(5-(6-(2,6-difluoro-3,5-dimethoxyphenyl)-4,5,6,7-tetrahydro-1H-indazol-3-yl)-1-methyl-1H-pyrazol-4-yl)propionamide]
> 0.1	C=C(F)C(=O)Nc1cnn(C)c1-c1n[nH]c2c1CCC(c1c(F)c(OC)cc(OC)c1F)C2 (single isomer, unassigned) [Compound S21-P1, N-(5-(6-(2,6-difluoro-3,5-dimethoxyphenyl)-4,5,6,7-tetrahydro-1H-indazol-3-yl)-1-methyl-1H-pyrazol-4-yl)-2-fluoroacrylamide]
> 0.1	C=CC(=O)N[C@@H]1COC[C@@H]1c1n[nH]c2c1CC[C@H](c1c(Cl)c(OC)cc(OC)c1Cl)C2 [Compound S10-P3, N-((3S,4S)-4-((S)-6-(2,6-dichloro-3,5-dimethoxyphenyl)-4,5,6,7-tetrahydro-1H-indazol-3-yl)tetrahydrofuran-3-yl)acrylamide]
> 0.1	COC(=O)/C=C/C(=O)Nc1cnn(C)c1-c1n[nH]c2c1CC[C@H](c1c(F)c(OC)cc(OC)c1F)C2 [Compound S22, methyl (S,E)-4-((5-(6-(2,6-difluoro-3,5-dimethoxyphenyl)-4,5,6,7-tetrahydro-1H-indazol-3-yl)-1-methyl-1H-pyrazol-4-yl)amino)-4-oxobut-2-enoate]
> 0.1	C=CC(=O)N[C@H]1COC[C@H]1c1n[nH]c2c1CC[C@@H](c1c(Cl)c(OC)cc(OC)c1Cl)C2 [Compound S10-P1, N-((3R,4R)-4-((R)-6-(2,6-dichloro-3,5-dimethoxyphenyl)-4,5,6,7-tetrahydro-1H-indazol-3-yl)tetrahydrofuran-3-yl)acrylamide]
> 0.1	COc1cc(OC)c(F)c(C2CCc3c(-c4c(NC(C)=O)cnn4C)n[nH]c3C2)c1F (single isomer, unassigned) [Compound S19-P2, N-(5-(6-(2,6-difluoro-3,5-dimethoxyphenyl)-4,5,6,7-tetrahydro-1H-indazol-3-yl)-1-methyl-1H-pyrazol-4-yl)acetamide]
> 0.1	C=CC(=O)Nc1cnn(CC(F)(F)F)c1-c1n[nH]c2c1CCC(c1c(F)c(OC)cc(OC)c1F)C2 (single isomer, unassigned) [Compound S18-P2, N-(5-(6-(2,6-difluoro-3,5-dimethoxyphenyl)-4,5,6,7-tetrahydro-1H-indazol-3-yl)-1-(2,2,2-trifluoroethyl)-1H-pyrazol-4-yl)acrylamide]
> 0.1	C=CC(=O)Nc1cnn(CC(F)(F)F)c1-c1n[nH]c2c1CCC(c1c(F)c(OC)cc(OC)c1F)C2 (single isomer, unassigned) [Compound S18-P1, N-(5-(6-(2,6-difluoro-3,5-dimethoxyphenyl)-4,5,6,7-tetrahydro-1H-indazol-3-yl)-1-(2,2,2-trifluoroethyl)-1H-pyrazol-4-yl)acrylamide]
> 0.1	C=CC(=O)NC1CCOCC1c1n[nH]c2c1CC[C@H](c1c(Cl)c(OC)cc(OC)c1Cl)C2 (single isomer, unassigned) [Compound S7-P1]
> 0.1	C=CC(=O)N[C@@H]1COC[C@@H]1c1n[nH]c2c1CC[C@H](c1cc(OC)cc(OC)c1F)C2 [Compound S13-P4, N-((3S,4S)-4-((S)-6-(2-fluoro-3,5-dimethoxyphenyl)-4,5,6,7-tetrahydro-1H-indazol-3-yl)tetrahydrofuran-3-yl)acrylamide]
> 0.1	CCC(=O)Nc1cnn(C)c1-c1n[nH]c2c1CCC(c1c(F)c(OC)cc(OC)c1F)C2 (single isomer, unassigned) [Compound S20-P2, N-(5-(6-(2,6-difluoro-3,5-dimethoxyphenyl)-4,5,6,7-tetrahydro-1H-indazol-3-yl)-1-methyl-1H-pyrazol-4-yl)propionamide]
